By IC50 is commonly meant the midpoint of a concentration-inhibition curve.

Consider 24 compounds from patent publication US10519177B2, “Heterocyclic compounds and uses thereof” (Plexxikon Inc., priority 2013, dated 2019).

One test deals with BRD4-BD12 (1-477) (Homo sapiens (Human), UniProt O60885). Briefly: Alphascreen binding assay BRD4-BD12. The following applies: BRD4(1 2) H4; read-out: Biochemical activity (IC50 μM) BRD4(1 2) H4. In a few lines: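 First, compound was preincubated 1 h at room temperature with the His-tagged BRD4 protein (BD1 44-164 or tandem BD12 1-477) and acetylated H4 peptide. Next, donor and acceptor beads were added at 7.5 μg/ml final. After 30 min, AlphaScreen emission was recorded.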
A general note: In Alpha technology, singlet oxygen from a donor bead excites a nearby acceptor bead.

For the next test, the system named is MV-4-11 cells. Briefly: Oncology cell growth assay MV-4-11 (CellTiter Glo). In kind it is cell-based. The settings on record: Homo sapiens, MV4-11, 72 h; read-out: Cell activity (IC50 μM) MV-4-11 3d-Growth. In a few lines: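 MV-4-11 AML cells (MLL-AF4), 3000 per well, exposed to 8-point 1:3 compound titration from 10 μM top concentration (0.2% DMSO) for 72 h. Viability by CellTiter Glo luminescence, normalized to DMSO controls; pIC50 from four-parameter curve fit.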
(In general: Cellular ATP, detected with luciferase, serves as a proxy for viable cell number.)

The subject of another test is bromodomain. Briefly: at least one of the bromodomain cell assays of Example 57. In kind it is cell-based. The settings on record: at least one of the bromodomain cell assays described in Example 57; read-out: IC50 in at least one of the bromodomain cell assays.

Take `Cc1noc(C)c1-c1cnc2c(-c3cnn(C)c3)cn(CC3(F)CCC(F)(F)CC3)c2c1` [P-0381, 3,5-dimethyl-4-[3-(1-methylpyrazol-4-yl)-1-[(1,4,4-trifluorocyclohexyl)methyl]pyrrolo[3,2-b]pyridin-6-yl]isoxazole]: the IC50 at BRD4-BD12 (1-477) is less than 1 µM; in the test with MV-4-11 cells, less than 1 µM; in the test with bromodomain, less than 10000 nM.
For `Cc1noc(C)c1-c1cnc2c(-c3ccc(C(=O)O)cc3)cn(CC3(F)CCC(F)(F)CC3)c2c1` [P-0382, 4-[6-(3,5-dimethylisoxazol-4-yl)-1-[(1,4,4-trifluorocyclohexyl)methyl]pyrrolo[3,2-b]pyridin-3-yl]benzoic acid], the IC50 on BRD4-BD12 (1-477) was less than 1 µM; in the test on MV-4-11 cells it was less than 1 µM; with bromodomain, less than 10000 nM.
`Cc1noc(C)c1-c1cnc2c(-c3ccc(CC(=O)O)cc3)cn(CC3(F)CCCCC3)c2c1` [P-0383, 2-[4-[6-(3,5-dimethylisoxazol-4-yl)-1-[(1-fluorocyclohexyl)methyl]pyrrolo[3,2-b]pyridin-3-yl]phenyl]acetic acid]: the IC50 on BRD4-BD12 (1-477) is less than 1 µM; with MV-4-11 cells, less than 1 µM; with bromodomain, less than 10000 nM.
Turning to `Cc1noc(C)c1-c1cnc2c(-c3cccc(CC(=O)O)c3)cn(CC3(F)CCCCC3)c2c1` [P-0384, 2-[3-[6-(3,5-dimethylisoxazol-4-yl)-1-[(1-fluorocyclohexyl)methyl]pyrrolo[3,2-b]pyridin-3-yl]phenyl]acetic acid], the IC50 was less than 1 µM at BRD4-BD12 (1-477), less than 1 µM in the test on MV-4-11 cells and less than 10000 nM in the test with bromodomain.
For the compound `Cc1noc(C)c1-c1cnc2c(-c3ccc(C4(C(=O)O)CC4)cc3)cn(CC3(F)CCCCC3)c2c1` [P-0385, 1-[4-[6-(3,5-dimethylisoxazol-4-yl)-1-[(1-fluorocyclohexyl)methyl]pyrrolo[3,2-b]pyridin-3-yl]phenyl]cyclopropanecarboxylic acid], the IC50 at BRD4-BD12 (1-477) is less than 1 µM; with MV-4-11 cells it was less than 1 µM; in the test on bromodomain, less than 10000 nM.
As to `Cc1noc(C)c1-c1cnc2c(-c3cnn(CC(=O)O)c3)cn(CC3(F)CCC(F)(F)CC3)c2c1` [P-0386, 2-[4-[6-(3,5-dimethylisoxazol-4-yl)-1-[(1,4,4-trifluorocyclohexyl)methyl]pyrrolo[3,2-b]pyridin-3-yl]pyrazol-1-yl]acetic acid], the figures for the IC50 at BRD4-BD12 (1-477), in the test with MV-4-11 cells and with bromodomain were less than 1 µM, 10 to 200 µM and less than 10000 nM, respectively.
For `COC(=O)c1ccc(-c2cn(CC3(F)CCC(F)(F)CC3)c3cc(-c4c(C)noc4C)cnc23)cc1F` [P-0387, methyl 4-[6-(3,5-dimethylisoxazol-4-yl)-1-[(1,4,4-trifluorocyclohexyl)methyl]pyrrolo[3,2-b]pyridin-3-yl]-2-fluoro-benzoate], in that order: less than 1 µM, less than 1 µM and less than 10000 nM.
For `Cc1noc(C)c1-c1cnc2c(-c3cccnc3)cn(CC3CCC(F)(F)CC3)c2c1` [P-0388, 4-[1-[(4,4-difluorocyclohexyl)methyl]-3-(3-pyridyl)pyrrolo[3,2-b]pyridin-6-yl]-3,5-dimethyl-isoxazole], in that order: less than 1 µM, less than 1 µM and less than 10000 nM.
Consider `Cc1noc(C)c1-c1cnc2c(-c3ccc(C(N)=O)cc3)cn(CC3CCC(F)(F)CC3)c2c1` [P-0389, 4-[1-[(4,4-difluorocyclohexyl)methyl]-6-(3,5-dimethylisoxazol-4-yl)pyrrolo[3,2-b]pyridin-3-yl]benzamide], for which the values for the IC50 on BRD4-BD12 (1-477), with MV-4-11 cells and in the test with bromodomain were less than 1 µM, less than 1 µM and less than 10000 nM, respectively.
Regarding `COc1ccc(-c2cn(CC3CCC(F)(F)CC3)c3cc(-c4c(C)noc4C)cnc23)cn1` [P-0390, 4-[1-[(4,4-difluorocyclohexyl)methyl]-3-(6-methoxy-3-pyridyl)pyrrolo[3,2-b]pyridin-6-yl]-3,5-dimethyl-isoxazole], the results for the IC50 on BRD4-BD12 (1-477), in the test on MV-4-11 cells and with bromodomain were less than 1 µM, less than 1 µM and less than 10000 nM, respectively.
Take `COc1ncc(-c2cn(CC3CCC(F)(F)CC3)c3cc(-c4c(C)noc4C)cnc23)cn1` [P-0391, 4-[1-[(4,4-difluorocyclohexyl)methyl]-3-(2-methoxypyrimidin-5-yl)pyrrolo[3,2-b]pyridin-6-yl]-3,5-dimethyl-isoxazole]: the IC50 was less than 1 µM at BRD4-BD12 (1-477), less than 1 µM with MV-4-11 cells and less than 10000 nM in the test on bromodomain.
Regarding `Cc1noc(C)c1-c1cnc2c(-c3cn[nH]c3)cn(CC3CCC(F)(F)CC3)c2c1` [P-0392, 4-[1-[(4,4-difluorocyclohexyl)methyl]-3-(1H-pyrazol-4-yl)pyrrolo[3,2-b]pyridin-6-yl]-3,5-dimethyl-isoxazole], the IC50 on BRD4-BD12 (1-477) is less than 1 µM; with MV-4-11 cells, less than 1 µM; in the test on bromodomain, less than 10000 nM.
As for `Cc1noc(C)c1-c1cnc2c(-c3cccc(C(=O)O)c3)cn(CC3CCC(F)(F)CC3)c2c1` [P-0393, 3-[1-[(4,4-difluorocyclohexyl)methyl]-6-(3,5-dimethylisoxazol-4-yl)pyrrolo[3,2-b]pyridin-3-yl]benzoic acid], the IC50 at BRD4-BD12 (1-477) is less than 1 µM; with MV-4-11 cells, less than 1 µM; in the test on bromodomain it was less than 10000 nM.
Regarding `Cc1noc(C)c1-c1cnc2c(-c3cnn(C)c3C)cn(CC3CCC(F)(F)CC3)c2c1` [P-0394, 4-[1-[(4,4-difluorocyclohexyl)methyl]-3-(1,5-dimethylpyrazol-4-yl)pyrrolo[3,2-b]pyridin-6-yl]-3,5-dimethyl-isoxazole], the IC50 is less than 1 µM at BRD4-BD12 (1-477), less than 1 µM with MV-4-11 cells and less than 10000 nM with bromodomain.
Take `Cc1nn(C)cc1-c1cn(CC2CCC(F)(F)CC2)c2cc(-c3c(C)noc3C)cnc12` [P-0395, 4-[1-[(4,4-difluorocyclohexyl)methyl]-3-(1,3-dimethylpyrazol-4-yl)pyrrolo[3,2-b]pyridin-6-yl]-3,5-dimethyl-isoxazole]: the values for the IC50 at BRD4-BD12 (1-477), in the test with MV-4-11 cells and in the test with bromodomain were less than 1 µM, less than 1 µM and less than 10000 nM, respectively.
Take `Cc1noc(C)c1-c1cnc2c(-c3cnc(N)nc3)cn(CC3CCC(F)(F)CC3)c2c1` [P-0396, 5-[1-[(4,4-difluorocyclohexyl)methyl]-6-(3,5-dimethylisoxazol-4-yl)pyrrolo[3,2-b]pyridin-3-yl]pyrimidin-2-amine]: the results for the IC50 on BRD4-BD12 (1-477), with MV-4-11 cells and with bromodomain were less than 1 µM, less than 1 µM and less than 10000 nM, respectively.
Take `Cc1ccc(-c2cn(CC3CCC(F)(F)CC3)c3cc(-c4c(C)noc4C)cnc23)cn1` [P-0397, 4-[1-[(4,4-difluorocyclohexyl)methyl]-3-(6-methyl-3-pyridyl)pyrrolo[3,2-b]pyridin-6-yl]-3,5-dimethyl-isoxazole]: the values for the IC50 on BRD4-BD12 (1-477), in the test on MV-4-11 cells and with bromodomain were less than 1 µM, less than 1 µM and less than 10000 nM, respectively.
For `Cc1noc(C)c1-c1cnc2c(-c3cnc(N)cn3)cn(CC3CCC(F)(F)CC3)c2c1` [P-0399, 5-[1-[(4,4-difluorocyclohexyl)methyl]-6-(3,5-dimethylisoxazol-4-yl)pyrrolo[3,2-b]pyridin-3-yl]pyrazin-2-amine], the IC50 on BRD4-BD12 (1-477) is less than 1 µM; in the test with MV-4-11 cells, less than 1 µM; with bromodomain, less than 10000 nM.
For the compound `Cc1noc(C)c1-c1cnc2c(-c3cnco3)cn(CC3CCC(F)(F)CC3)c2c1` [P-0400, 4-[1-[(4,4-difluorocyclohexyl)methyl]-3-oxazol-5-yl-pyrrolo[3,2-b]pyridin-6-yl]-3,5-dimethyl-isoxazole], the results for the IC50 on BRD4-BD12 (1-477), in the test on MV-4-11 cells and in the test on bromodomain were less than 1 µM, less than 1 µM and less than 10000 nM, respectively.
As to `Cc1noc(C)c1-c1cnc2c(-c3ccc(N)nc3)cn(CC3CCC(F)(F)CC3)c2c1` [P-0401, 5-[1-[(4,4-difluorocyclohexyl)methyl]-6-(3,5-dimethylisoxazol-4-yl)pyrrolo[3,2-b]pyridin-3-yl]pyridin-2-amine], the IC50 at BRD4-BD12 (1-477) is less than 1 µM; in the test with MV-4-11 cells, less than 1 µM; with bromodomain, less than 10000 nM.
Take `Cc1noc(C)c1-c1cnc2c(-c3ccc(O)nc3)cn(CC3CCC(F)(F)CC3)c2c1` [P-0402, 5-[1-[(4,4-difluorocyclohexyl)methyl]-6-(3,5-dimethylisoxazol-4-yl)pyrrolo[3,2-b]pyridin-3-yl]pyridin-2-ol]: the results for the IC50 at BRD4-BD12 (1-477), in the test with MV-4-11 cells and in the test with bromodomain were less than 1 µM, less than 1 µM and less than 10000 nM, respectively.
For the compound `CNC(=O)c1ccc(-c2cn(CC3CCC(F)(F)CC3)c3cc(-c4c(C)noc4C)cnc23)cc1` [P-0403, 4-[1-[(4,4-difluorocyclohexyl)methyl]-6-(3,5-dimethylisoxazol-4-yl)pyrrolo[3,2-b]pyridin-3-yl]-N-methyl-benzamide], the IC50 on BRD4-BD12 (1-477) is less than 1 µM; in the test on MV-4-11 cells, less than 1 µM; in the test on bromodomain, less than 10000 nM.
Turning to `COc1cc(-c2cn(CC3CCC(F)(F)CC3)c3cc(-c4c(C)noc4C)cnc23)ccc1C(=O)O` [P-0404, 4-[1-[(4,4-difluorocyclohexyl)methyl]-6-(3,5-dimethylisoxazol-4-yl)pyrrolo[3,2-b]pyridin-3-yl]-2-methoxy-benzoic acid], the values for the IC50 at BRD4-BD12 (1-477), in the test with MV-4-11 cells and in the test with bromodomain were less than 1 µM, less than 1 µM and less than 10000 nM, respectively.
Take `Cc1noc(C)c1-c1cnc2c(-c3cnc(C4CC4)nc3)cn(CC3CCC(F)(F)CC3)c2c1` [P-0405, 4-[3-(2-cyclopropylpyrimidin-5-yl)-1-[(4,4-difluorocyclohexyl)methyl]pyrrolo[3,2-b]pyridin-6-yl]-3,5-dimethyl-isoxazole]: the IC50 is less than 1 µM on BRD4-BD12 (1-477), less than 1 µM with MV-4-11 cells and less than 10000 nM in the test with bromodomain.
